{
  "source": "patent US20080274202A1",
  "about": "“Compositions and Method for Brain Specific Targeted Delivery of Therapeutic Agents” (priority 2005, published 2008)",
  "system": "HOTCs",
  "test": "HOTC maintenance in serum-free media with antibiotic",
  "type": "cell-based",
  "settings": "by 21 DIV, in SFM",
  "protocol": "HOTCs were prepared and maintained by initial incubation in serum-based media followed by transfer to a serum-free media (SFM) at 4 days in vitro (DIV). The transfer from serum-containing medium to SFM prevented neuronal loss from occurring after two weeks of culture (stability was measured by neuron-specific nuclear protein (NeuN)-based western blots), and prevented glial activation in the HOTCs. SFM contained Neurobasal medium ((96%) from Invitrogen) supplemented to 42 mM glucose, 1 mM glutamine (from Sigma), 2% B27 supplement, 10 μg/mL gentamicin and […] Fungizone (from Invitrogen). […] The SFM was changed twice a week and the HOTCs were incubated at 36° C. with 5% CO2-balance air. Slices were maintained to 21 DIV to allow cultures to mature, and used from 21-30 DIV.",
  "data": [
    {"substance": "penicillin", "values": [
      {"measurement": "CA3 field potentials from dentate gyrus stimulation", "value": "no CA3 field potentials were seen"},
      {"measurement": "pyramidal cell survival in HOTCs", "value": "most pyramidal cells were dead"}
    ]}
  ]
}
